Data reported in PubChem BioAssay AID2060615 (Molecular Pharmacology Branch, DTP, NCI, 2025).
Values joined by “and” are separate entries in the source; they are usually repeats but may differ in a detail not shown here. Identical values can stand only once. Each block holds one compound with its values, some of them ahead of it.

Test system: 496974-208-R-J2-PDC complex spheroids, growth % test/control
Assay: Anticancer human tumor 496974-208-R-J2-PDC patient-derived pancreatic carcinoma cell line growth inhibition [CLK]
Details: for viability, T/C: stronger effect = lower value
Method in brief: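 Patient-derived tumor cells grown as complex spheroids with HUVEC endothelial cells and mesenchymal stem cells, treated with drug combinations. Concentrations descend in half-log steps from near clinical Cmax, or from 10 microM if Cmax unknown.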

[1] = curve of first compound, second compound 0.0316 µM
[2] = curve of first compound, second compound 0.1 µM
[3] = curve of first compound, second compound 0.316 µM
[4] = curve of first compound, second compound 1 µM
[5] = curve of first compound, second compound 3.16 µM
[6] = curve of first compound, second compound 10 µM
[7] = second compound 0.0316 µM, first compound 0.0316 µM
[8] = second compound 0.0316 µM, first compound 0.1 µM
[9] = second compound 0.0316 µM, first compound 0.316 µM
[10] = second compound 0.0316 µM, first compound 1 µM
[11] = second compound 0.0316 µM, first compound 3.16 µM
[12] = second compound 0.0316 µM, first compound 10 µM
[13] = second compound 0.1 µM, first compound 0.0316 µM
[14] = second compound 0.1 µM, first compound 0.1 µM
[15] = second compound 0.1 µM, first compound 0.316 µM
[16] = second compound 0.1 µM, first compound 1 µM
[17] = second compound 0.1 µM, first compound 3.16 µM
[18] = second compound 0.1 µM, first compound 10 µM
[19] = second compound 0.316 µM, first compound 0.0316 µM
[20] = second compound 0.316 µM, first compound 0.1 µM
[21] = second compound 0.316 µM, first compound 0.316 µM
[22] = second compound 0.316 µM, first compound 1 µM
[23] = second compound 0.316 µM, first compound 3.16 µM
[24] = second compound 0.316 µM, first compound 10 µM
[25] = second compound 1 µM, first compound 0.0316 µM
[26] = second compound 1 µM, first compound 0.1 µM
[27] = second compound 1 µM, first compound 0.316 µM
[28] = second compound 1 µM, first compound 1 µM
[29] = second compound 1 µM, first compound 3.16 µM
[30] = second compound 1 µM, first compound 10 µM
[31] = second compound 3.16 µM, first compound 0.0316 µM
[32] = second compound 3.16 µM, first compound 0.1 µM
[33] = second compound 3.16 µM, first compound 0.316 µM
[34] = second compound 3.16 µM, first compound 1 µM
[35] = second compound 3.16 µM, first compound 3.16 µM
[36] = second compound 3.16 µM, first compound 10 µM
[37] = second compound 10 µM, first compound 0.0316 µM
[38] = second compound 10 µM, first compound 0.1 µM
[39] = second compound 10 µM, first compound 0.316 µM
[40] = second compound 10 µM, first compound 1 µM
[41] = second compound 10 µM, first compound 3.16 µM
[42] = second compound 10 µM, first compound 10 µM
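Further: spheroids exposed to the drugs for 7 days before readout.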
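Wherever viability, T/C is given: 100% = DMSO vehicle control wells.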

Compound: CCCS(=O)(=O)Nc1ccc(F)c(C(=O)c2c[nH]c3ncc(-c4ccc(Cl)cc4)cc23)c1F + CN1CCN(c2cc(C(=O)Nc3cc4cc(-c5cnn(C)c5)ccc4cn3)ccn2)CC1
IC50 [1]: 8.72 µM
IC50 [2]: 8.61 µM
IC50 [3]: < 0.0316 µM
IC50 [4]: < 0.0316 µM
IC50 [5]: < 0.0316 µM
IC50 [6]: < 0.0316 µM
viability, T/C [7]: 100%
viability, T/C [8]: 101%
viability, T/C [9]: 104%
viability, T/C [10]: 112%
viability, T/C [11]: 103%
viability, T/C [12]: 42.9%
viability, T/C [13]: 79.8%
viability, T/C [14]: 92.3%
viability, T/C [15]: 95.8%
viability, T/C [16]: 95.3%
viability, T/C [17]: 82.8%
viability, T/C [18]: 44.8%
viability, T/C [19]: 7.31%
viability, T/C [20]: 7.89%
viability, T/C [21]: 8.26%
viability, T/C [22]: 12.3%
viability, T/C [23]: 13.7%
viability, T/C [24]: 12.7%
viability, T/C [25]: 0.4%
viability, T/C [26]: 1.65%
viability, T/C [27]: 0.49%
viability, T/C [28]: 0.54%
viability, T/C [29]: 0.67%
viability, T/C [30]: 1.12%
viability, T/C [31]: 0.36%
viability, T/C [32]: 0.59%
viability, T/C [33]: 1.11%
viability, T/C [34]: 0.45%
viability, T/C [35]: 1.82%
viability, T/C [36]: 1.33%
viability, T/C [37]: 0.23%
viability, T/C [38]: 0.7%
viability, T/C [39]: 0.31%
viability, T/C [40]: 1.08%
viability, T/C [41]: 1.52%
viability, T/C [42]: 0.99%

Compound: CC(=O)O[C@H]1C(=O)[C@@]2(C)[C@H]([C@H](OC(=O)c3ccccc3)[C@]3(O)C[C@H](OC(=O)[C@H](O)[C@@H](NC(=O)c4ccccc4)c4ccccc4)C(C)=C1C3(C)C)[C@]1(OC(C)=O)CO[C@@H]1C[C@@H]2O + CN1CCN(c2cc(C(=O)Nc3cc4cc(-c5cnn(C)c5)ccc4cn3)ccn2)CC1
IC50 [1]: < 0.0316 µM
IC50 [2]: < 0.0316 µM
IC50 [3]: < 0.0316 µM
IC50 [4]: < 0.0316 µM
IC50 [5]: < 0.0316 µM
IC50 [6]: < 0.0316 µM
viability, T/C [7]: 35.9%
viability, T/C [8]: 29.4%
viability, T/C [9]: 33.5%
viability, T/C [10]: 29.2%
viability, T/C [11]: 31.5%
viability, T/C [12]: 27.9%
viability, T/C [13]: 29.4%
viability, T/C [14]: 25.9%
viability, T/C [15]: 27.7%
viability, T/C [16]: 29.5%
viability, T/C [17]: 24.8%
viability, T/C [18]: 23.7%
viability, T/C [19]: 5.33%
viability, T/C [20]: 4.57%
viability, T/C [21]: 5.74%
viability, T/C [22]: 4.55%
viability, T/C [23]: 5.22%
viability, T/C [24]: 4.68%
viability, T/C [25]: 0.41%
viability, T/C [26]: 0.53%
viability, T/C [27]: 0.5%
viability, T/C [28]: 0.41%
viability, T/C [29]: 0.36%
viability, T/C [30]: 0.37%
viability, T/C [31]: 0.58%
viability, T/C [32]: 0.77%
viability, T/C [33]: 2.07%
viability, T/C [34]: 0.54%
viability, T/C [35]: 0.58%
viability, T/C [36]: 0.34%
viability, T/C [37]: 0.23%
viability, T/C [38]: 0.29%
viability, T/C [39]: 0.24%
viability, T/C [40]: 0.25%
viability, T/C [41]: 2.61%
viability, T/C [42]: 0.28%

Compound: CC(C)CC(NC(=O)C(Cc1ccccc1)NC(=O)c1cnccn1)B(O)O (stereo unspecified)
viability, T/C (compound 0.000949 µM): 99.9%
viability, T/C (compound 0.003 µM): 63.8%
viability, T/C (compound 0.00949 µM): 0.44%
viability, T/C (compound 0.03 µM): 0.67%
viability, T/C (compound 0.0949 µM): 0.24%
viability, T/C (compound 0.3 µM): 0.27%
IC50 (curve of compound): 0.00385 µM

Compound: CC(CO)NC(=O)c1cc(-c2ccc(Cl)cc2)nn(-c2cnn(C)c2)c1=O (stereo unspecified) + CNC(=O)c1ccc(Nc2nc(OC3CCCC3)c3c(-c4ccc5nc(C)oc5c4)c[nH]c3n2)c(OC)c1
IC50 [1]: > 10 µM
IC50 [2]: 6.65 µM
IC50 [3]: 6.97 µM
IC50 [4]: 3.29 µM
IC50 [5]: 5.16 µM
IC50 [6]: 4.14 µM
viability, T/C [7]: 103%
viability, T/C [8]: 91.4%
viability, T/C [9]: 92.8%
viability, T/C [10]: 90.4%
viability, T/C [11]: 89.1%
viability, T/C [12]: 55%
viability, T/C [13]: 87.3%
viability, T/C [14]: 74.5%
viability, T/C [15]: 80.8%
viability, T/C [16]: 63.1%
viability, T/C [17]: 65.4%
viability, T/C [18]: 42.6%
viability, T/C [19]: 79.2%
viability, T/C [20]: 67.3%
viability, T/C [21]: 72.6%
viability, T/C [22]: 69%
viability, T/C [23]: 59.4%
viability, T/C [24]: 44.9%
viability, T/C [25]: 71%
viability, T/C [26]: 71.8%
viability, T/C [27]: 63.5%
viability, T/C [28]: 59.7%
viability, T/C [29]: 50.9%
viability, T/C [30]: 37.9%
viability, T/C [31]: 62.4%
viability, T/C [32]: 57.9%
viability, T/C [33]: 52%
viability, T/C [34]: 58.4%
viability, T/C [35]: 56.6%
viability, T/C [36]: 41.1%
viability, T/C [37]: 55.5%
viability, T/C [38]: 54.8%
viability, T/C [39]: 49.8%
viability, T/C [40]: 47.1%
viability, T/C [41]: 56.5%
viability, T/C [42]: 41%

Compound: C#Cc1c(F)ccc2cc(O)cc(-c3ncc4c(N5CC6CCC(C5)N6)nc(OCC56CCCN5CC(F)C6)nc4c3F)c12 (stereo unspecified)
viability, T/C (compound 0.0316 µM): 63.5% and 68.8%
viability, T/C (compound 0.1 µM): 57.4% and 58.6%
viability, T/C (compound 0.316 µM): 48.7% and 48%
viability, T/C (compound 1 µM): 48.6% and 46.5%
viability, T/C (compound 3.16 µM): 44.9% and 50.8%
viability, T/C (compound 10 µM): 38% and 43.1%
IC50 (curve of compound): 0.471 µM and 0.364 µM

More lines, main results first:

IC50 (curve of compound): 7.38 µM and 6.35 µM
Compound: CCCS(=O)(=O)Nc1ccc(F)c(C(=O)c2c[nH]c3ncc(-c4ccc(Cl)cc4)cc23)c1F
viability, T/C (compound 0.0316 µM): 108% and 106%
viability, T/C (compound 0.1 µM): 92.2% and 91.8%
viability, T/C (compound 0.316 µM): 100% and 95.3%
viability, T/C (compound 1 µM): 108% and 93.8%
viability, T/C (compound 3.16 µM): 87.8% and 93.4%
viability, T/C (compound 10 µM): 36.3% and 21.7%

IC50 [1]: 6.5 µM
IC50 [2]: 5.52 µM
IC50 [3]: 4.78 µM
IC50 [4]: 2.15 µM
IC50 [5]: 0.953 µM
IC50 [6]: 0.971 µM
Compound: CC1COCCN1c1cc(C2(S(C)(=N)=O)CC2)nc(-c2ccnc3[nH]ccc23)n1 (stereo unspecified) + CNC(=O)c1ccc(Nc2nc(OC3CCCC3)c3c(-c4ccc5nc(C)oc5c4)c[nH]c3n2)c(OC)c1
viability, T/C [7]: 101%
viability, T/C [8]: 98.3%
viability, T/C [9]: 91.2%
viability, T/C [10]: 83.2%
viability, T/C [11]: 62.8%
viability, T/C [12]: 42.1%
viability, T/C [13]: 87.2%
viability, T/C [14]: 78.4%
viability, T/C [15]: 77.1%
viability, T/C [16]: 74.4%
viability, T/C [17]: 53.5%
viability, T/C [18]: 43%
viability, T/C [19]: 72.6%
viability, T/C [20]: 69.3%
viability, T/C [21]: 79%
viability, T/C [22]: 80%
viability, T/C [23]: 56.4%
viability, T/C [24]: 38.7%
viability, T/C [25]: 73.8%
viability, T/C [26]: 66.8%
viability, T/C [27]: 71%
viability, T/C [28]: 62.8%
viability, T/C [29]: 43.5%
viability, T/C [30]: 32.6%
viability, T/C [31]: 63.7%
viability, T/C [32]: 63.2%
viability, T/C [33]: 54.6%
viability, T/C [34]: 52.5%
viability, T/C [35]: 36.9%
viability, T/C [36]: 27.6%
viability, T/C [37]: 51.8%
viability, T/C [38]: 58%
viability, T/C [39]: 54.5%
viability, T/C [40]: 49.8%
viability, T/C [41]: 31.9%
viability, T/C [42]: 21.8%

IC50 (curve of compound): > 0.1 µM
Compound: Cn1ncnc1[C@H]1c2n[nH]c(=O)c3cc(F)cc(c23)N[C@@H]1c1ccc(F)cc1
viability, T/C (compound 0.000316 µM): 109% and 106%
viability, T/C (compound 0.001 µM): 103% and 99.5%
viability, T/C (compound 0.00316 µM): 90.4% and 101%
viability, T/C (compound 0.01 µM): 95.2% and 99.5%
viability, T/C (compound 0.0316 µM): 93.3% and 95.1%
viability, T/C (compound 0.1 µM): 86% and 104%
